≈ marks a conversion by molar mass, not a printed value.
Legend:
[1] = tested on: Streptococcus pyogenes C203; test: MIC, standard broth micro-dilution assay; type: cell-based
Protocol: (§1) The MIC's were determined using a standard broth micro-dilution assay.

[2] = tested on: Entercoccus faecalis 276; test: MIC, standard broth micro-dilution assay; type: cell-based
Protocol: (§2) The formula I compounds have in vitro and in vivo activity against Gram-positive pathogenic bacteria. The MIC's were determined using a standard broth micro-dilution assay.

[3] = tested on: Entercoccus gallinarum 245; test: MIC, standard broth micro-dilution assay; type: cell-based
Protocol: as §2

[4] = tested on: vancomycin-susceptibie enterococci (Enterococcus faecium and Enterococcus faecalis); test: mean geometric MIC, broth micro-dilution; type: cell-based; details: 24-hour incubation
[5] = tested on: Entercoccus faecalis 2041; test: MIC, standard broth micro-dilution assay; type: cell-based
Protocol: as §2

[6] = tested on: vancomycin-resistant enterococci (Enterococcus faecium and Enterococcus faecalis); test: mean geometric MIC, broth micro-dilution; type: cell-based; details: 24-hour incubation
[7] = tested on: Staphylococcus aureus SA1199; test: MIC, standard broth micro-dilution assay; type: cell-based
Protocol: as §1

[8] = tested on: Entercoccus faecium 180; test: MIC, standard broth micro-dilution assay; type: cell-based
Protocol: as §1

[9] = tested on: Staphylococcus aureus X778; test: MIC, standard broth micro-dilution assay; type: cell-based
Protocol: as §1

[10] = tested on: Escherichia coli EC14; test: MIC, standard broth micro-dilution assay; type: cell-based
Protocol: as §1

[11] = tested on: Staphylococcus haemolyticus 415; test: MIC, standard broth micro-dilution assay; type: cell-based
Protocol: as §1

[12] = tested on: Staphylococcus epidermidis 270; test: MIC, standard broth micro-dilution assay; type: cell-based
Protocol: as §1

[13] = tested on: Staphylococcus haemolyticus 105; test: MIC, standard broth micro-dilution assay; type: cell-based
Protocol: as §1

[14] = tested on: Staphylococcus aureus 489; test: MIC, standard broth micro-dilution assay; type: cell-based
Protocol: as §1

[15] = tested on: Streptococcus pneumoniae P1; test: MIC, standard broth micro-dilution assay; type: cell-based
Protocol: as §1

[16] = tested on: Staphylococcus aureus 447; test: MIC, standard broth micro-dilution assay; type: cell-based
Protocol: as §1

[17] = tested on: Staphylococcus aureus 446; test: MIC, standard broth micro-dilution assay; type: cell-based
Protocol: as §1

[18] = tested on: Staphylococcus aureus SA1199A; test: MIC, standard broth micro-dilution assay; type: cell-based
Protocol: as §1

[19] = tested on: Staphylococcus aureus 491; test: MIC, standard broth micro-dilution assay; type: cell-based
Protocol: as §1

[20] = tested on: Entercoccus faecium 180-1; test: MIC, standard broth micro-dilution assay; type: cell-based
Protocol: as §1

[21] = tested on: Staphylococcus aureus X400; test: MIC, standard broth micro-dilution assay; type: cell-based
Protocol: as §1

[22] = tested on: Pedicoccus acidilacti; test: MIC, agar dilution on brain-heart infusion agar; type: cell-based; details: Pedioccccus acidilacti (mean of 10)
[23] = tested on: Leuconostoc mesenteroides; test: MIC, agar dilution on brain-heart infusion agar; type: cell-based; details: Leuconostoc mesenteroides (mean of 4)
[24] = tested on: Pediococcus pentosaceus; test: MIC, agar dilution on brain-heart infusion agar; type: cell-based; details: Pediococcus pentosaceus (mean of 2)
[25] = tested on: Leuconostoc lactis; test: MIC, agar dilution on brain-heart infusion agar; type: cell-based; details: Leuconostoc lactis (mean of 2)
[26] = tested on: Lactobacillus confusus; test: MIC, agar dilution on brain-heart infusion agar; type: cell-based
[27] = tested on: Staphylococcus aureus SA1199B; type: cell-based
Protocol: as §1

[28] = tested on: Staphylococcus aureus S13E; type: cell-based
Protocol: as §1

[29] = tested on: Haemophilus influenzae RD; test: MIC, standard broth micro-dilution assay; type: cell-based
Protocol: as §1

[30] = tested on: Streptococcus pyogenes; test: ED50 in experimentally infected mice; type: in vivo; details: mice infected with Streptococcus pyogenes, two doses
[31] = tested on: Stapylococcus aureus; test: ED50 in experimentally infected mice; type: in vivo; details: mice infected with Stapylococcus aureus, two doses
[32] = tested on: Streptococcus pneumoniae; test: ED50 in experimentally infected mice; type: in vivo; details: mice infected with Streptococcus pneumoniae, two doses
[33] = tested on: Leuconostoc citreum; test: MIC, agar dilution on brain-heart infusion agar; type: cell-based
[34] = tested on: Leuconostoc pseudomesenteroides; test: MIC, agar dilution on brain-heart infusion agar; type: cell-based

| SMILES | MIC [1] | MIC [2] | MIC [3] | MIC [5] | MIC [7] | MIC [8] | MIC [9] | MIC [10] | MIC [11] | MIC [12] | MIC [13] | MIC [14] | MIC [15] | MIC [16] | MIC [17] | MIC [18] | MIC [19] | MIC [20] | MIC [21] | MIC [27] | other results |
| --- | --- | --- | --- | --- | --- | --- | --- | --- | --- | --- | --- | --- | --- | --- | --- | --- | --- | --- | --- | --- | --- |
| CCCCCCCCCCCCOc1ccc(CNC2(C)CC(OC3C(Oc4c5cc6cc4Oc4ccc(cc4Cl)C(OC4CC(C)(N)C(O)C(C)O4)C4NC(=O)C(NC(=O)C6NC(=O)C(CC(N)=O)NC(=O)C(NC(=O)C(CC(C)C)NC)C(O)c6ccc(c(Cl)c6)O5)c5ccc(O)c(c5)-c5c(O)cc(O)cc5C(C(=O)O)NC4=O)OC(CO)C(O)C3O)OC(C)C2O)cc1 (stereo not drawn) [Compound 10, 4-dodecyloxybenzyl] | 0.5 µg/mL (≈ 0.268 µM) | 18 µg/mL (≈ 9.64 µM) | 8 µg/mL (≈ 4.29 µM) | – | – | – | – | – | – | – | – | – | – | – | – | – | – | – | – | – | – |
| CNC(CC(C)C)C(=O)NC1C(=O)NC(CC(N)=O)C(=O)NC2C(=O)NC3C(=O)NC(C(=O)NC(C(=O)O)c4cc(O)cc(O)c4-c4cc3ccc4O)C(OC3CC(C)(N)C(O)C(C)O3)c3ccc(c(Cl)c3)Oc3cc2cc(c3OC2OC(CO)C(O)C(O)C2OC2CC(C)(NCc3cccc(Oc4cccc(C(F)(F)F)c4)c3)C(O)C(C)O2)Oc2ccc(cc2Cl)C1O (stereo not drawn) [Compound 111] | – | 0.5 µg/mL (≈ 0.271 µM) | 4 µg/mL (≈ 2.17 µM) | ≤ 0.06 µg/mL | – | – | – | – | – | – | – | – | – | – | – | – | – | – | – | – | mean geometric MIC, Vancomycin Sensitive Strains [4]: 0.054 µg/mL; mean geometric MIC, Vancomycin Resistant Strains [6]: 0.84 µg/mL |
| CNC(CC(C)C)C(=O)NC1C(=O)NC(CC(N)=O)C(=O)NC2C(=O)NC3C(=O)NC(C(=O)NC(C(=O)O)c4cc(O)cc(O)c4-c4cc3ccc4O)C(OC3CC(C)(N)C(O)C(C)O3)c3ccc(c(Cl)c3)Oc3cc2cc(c3OC2OC(CO)C(O)C(O)C2OC2CC(C)(NCc3ccc(SC)cc3)C(O)C(C)O2)Oc2ccc(cc2Cl)C1O (stereo not drawn) [Compound 41, 4-thiomethylbenzyl] | ≤ 0.06 µg/mL | ≤ 0.06 µg/mL | ≤ 0.06 µg/mL | ≤ 0.06 µg/mL | ≤ 0.06 µg/mL | 0.25 µg/mL (≈ 0.145 µM) | 0.125 µg/mL (≈ 0.0723 µM) | > 64 µg/mL | 4 µg/mL (≈ 2.31 µM) | 0.25 µg/mL (≈ 0.145 µM) | 2 µg/mL (≈ 1.16 µM) | ≤ 0.06 µg/mL | ≤ 0.06 µg/mL | 0.25 µg/mL (≈ 0.145 µM) | 2 µg/mL (≈ 1.16 µM) | ≤ 0.06 µg/mL | 0.5 µg/mL (≈ 0.289 µM) | ≤ 0.06 µg/mL | ≤ 0.06 µg/mL | 0.25 µg/mL (≈ 0.145 µM) | MIC [22]: 71 µg/mL (≈ 41.1 µM); MIC [23]: 91 µg/mL (≈ 52.6 µM); MIC [24]: 91 µg/mL (≈ 52.6 µM); MIC [25]: 91 µg/mL (≈ 52.6 µM); MIC [26]: 64 µg/mL (≈ 37 µM); MIC [28]: ≤ 0.06 µg/mL |
| CNC(CC(C)C)C(=O)NC1C(=O)NC(CC(N)=O)C(=O)NC2C(=O)NC3C(=O)NC(C(=O)NC(C(=O)O)c4cc(O)cc(O)c4-c4cc3ccc4O)C(OC3CC(C)(N)C(O)C(C)O3)c3ccc(c(Cl)c3)Oc3cc2cc(c3OC2OC(CO)C(O)C(O)C2OC2CC(C)(NCc3cccc4c([N+](=O)[O-])cccc34)C(O)C(C)O2)Oc2ccc(cc2Cl)C1O (stereo not drawn) [Compound 25, 5-nitro-1-naphthylmethyl] | – | 0.25 µg/mL (≈ 0.141 µM) | ≤ 0.06 µg/mL | 0.25 µg/mL (≈ 0.141 µM) | – | 0.5 µg/mL (≈ 0.281 µM) | – | – | 32 µg/mL (≈ 18 µM) | 0.5 µg/mL (≈ 0.281 µM) | 1 µg/mL (≈ 0.563 µM) | – | – | 0.25 µg/mL (≈ 0.141 µM) | 0.5 µg/mL (≈ 0.281 µM) | – | 0.125 µg/mL (≈ 0.0703 µM) | – | – | – | MIC [29]: 32 µg/mL (≈ 18 µM); ED50 [30]: 0.087 mg/kg/2; ED50 [31]: 0.16 mg/kg/2; mean geometric MIC, Vancomycin Sensitive Strains [4]: 0.22 µg/mL; ED50 [32]: 0.088 mg/kg/2; mean geometric MIC, Vancomycin Resistant Strains [6]: 4.0 µg/mL |
| CNC(CC(C)C)C(=O)NC1C(=O)NC(CC(N)=O)C(=O)NC2C(=O)NC3C(=O)NC(C(=O)NC(C(=O)O)c4cc(O)cc(O)c4-c4cc3ccc4O)C(OC3CC(C)(N)C(O)C(C)O3)c3ccc(c(Cl)c3)Oc3cc2cc(c3OC2OC(CO)C(O)C(O)C2OC2CC(C)(NCC(C)=Cc3ccc(C(C)(C)C)cc3)C(O)C(C)O2)Oc2ccc(cc2Cl)C1O (stereo not drawn) [Compound 42, 2,3-[2-methyl-3-[4-t-butylphenyl]]propenyl] | ≤ 0.06 µg/mL | 8 µg/mL (≈ 4.5 µM) | 1 µg/mL (≈ 0.562 µM) | 0.125 µg/mL (≈ 0.0703 µM) | 1 µg/mL (≈ 0.562 µM) | 0.25 µg/mL (≈ 0.141 µM) | 1 µg/mL (≈ 0.562 µM) | > 64 µg/mL | 1 µg/mL (≈ 0.562 µM) | 0.5 µg/mL (≈ 0.281 µM) | 2 µg/mL (≈ 1.12 µM) | 0.5 µg/mL (≈ 0.281 µM) | ≤ 0.06 µg/mL | 0.5 µg/mL (≈ 0.281 µM) | 1 µg/mL (≈ 0.562 µM) | ≤ 0.06 µg/mL | 0.5 µg/mL (≈ 0.281 µM) | ≤ 0.06 µg/mL | 1 µg/mL (≈ 0.562 µM) | 2 µg/mL (≈ 1.12 µM) | MIC [28]: 0.5 µg/mL (≈ 0.281 µM) |
| CCCCCOc1ccc(-c2ccc(CNC3(C)CC(OC4C(Oc5c6cc7cc5Oc5ccc(cc5Cl)C(OC5CC(C)(N)C(O)C(C)O5)C5NC(=O)C(NC(=O)C7NC(=O)C(CC(N)=O)NC(=O)C(NC(=O)C(CC(C)C)NC)C(O)c7ccc(c(Cl)c7)O6)c6ccc(O)c(c6)-c6c(O)cc(O)cc6C(C(=O)O)NC5=O)OC(CO)C(O)C4O)OC(C)C3O)cc2)cc1 (stereo not drawn) [Compound 40, 4-[4-pentoxyphenyl]benzyl] | ≤ 0.06 µg/mL | 2 µg/mL (≈ 1.08 µM) | 11 µg/mL (≈ 5.96 µM) | 1 µg/mL (≈ 0.542 µM) | 4 µg/mL (≈ 2.17 µM) | 1 µg/mL (≈ 0.542 µM) | 4 µg/mL (≈ 2.17 µM) | > 64 µg/mL | 2 µg/mL (≈ 1.08 µM) | 1 µg/mL (≈ 0.542 µM) | 2 µg/mL (≈ 1.08 µM) | 4 µg/mL (≈ 2.17 µM) | ≤ 0.06 µg/mL | 2 µg/mL (≈ 1.08 µM) | 4 µg/mL (≈ 2.17 µM) | 0.5 µg/mL (≈ 0.271 µM) | 4 µg/mL (≈ 2.17 µM) | 2 µg/mL (≈ 1.08 µM) | 4 µg/mL (≈ 2.17 µM) | 8 µg/mL (≈ 4.34 µM) | MIC [28]: 4 µg/mL (≈ 2.17 µM) |
| CNC(CC(C)C)C(=O)NC1C(=O)NC(CC(N)=O)C(=O)NC2C(=O)NC3C(=O)NC(C(=O)NC(C(=O)O)c4cc(O)cc(O)c4-c4cc3ccc4O)C(OC3CC(C)(N)C(O)C(C)O3)c3ccc(c(Cl)c3)Oc3cc2cc(c3OC2OC(CO)C(O)C(O)C2OC2CC(C)(NCc3ccc(OC4CCCCC4)cc3)C(O)C(C)O2)Oc2ccc(cc2Cl)C1O (stereo not drawn) [Compound 124, 4-cyclohexyloxybenzyl] | – | ≤ 0.06 µg/mL | 1 µg/mL (≈ 0.562 µM) | ≤ 0.06 µg/mL | – | – | – | – | – | – | – | – | – | – | – | – | – | – | – | – | MIC [22]: 20 µg/mL (≈ 11.2 µM); MIC [23]: 16 µg/mL (≈ 8.99 µM); MIC [24]: 16 µg/mL (≈ 8.99 µM); MIC [25]: 16 µg/mL (≈ 8.99 µM); MIC [26]: 16 µg/mL (≈ 8.99 µM); MIC [33]: 64 µg/mL (≈ 35.9 µM); MIC [34]: 64 µg/mL (≈ 35.9 µM) |
